From patent publication US12011444B2, “N-substituted indole derivatives as PGE2 receptor modulators” (Idorsia Pharmaceuticals Ltd, priority 2015, dated 2024) come the findings set out here.

Molecules are shown by their SMILES.

In general, IC50 refers to the concentration that inhibits the measured activity by half. Read a high IC50 as lower potency.

The target in assay [1] is PTGER2 (EP2) (Homo sapiens (Human), UniProt P43116). In words: hEP2 b-arrestin assay (PathHunter HEK 293 PTGER2 b-arrestin cells). To be noted: hEP2 b-arrestin assay (values without asterisk). In kind it is cell-based. An outline of the steps:
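Readout is β-galactosidase complementation luminescence, expressed as percent of DMSO control (duplicates). PathHunter HEK293 EP2/β-arrestin 2 cells, grown 24 h, received compound for 15 min at 37 °C before a 120 min challenge with PGE2 at 5 μM final, followed by 1 h detection at room temperature.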

The target of assay [2] is PTRGER4 (EP4) (Homo sapiens (Human), UniProt P35408). In words: hEP4 b-arrestin assay (PathHunter HEK 293 PTGER4 b-arrestin cells). Type of assay: cell-based. The note with it: hEP4 b-arrestin assay (values without asterisk). An outline of the steps: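 Antagonist mode: compound is given 15 min at 37 °C, then 20 nM (final) PGE2 for 120 min, in HEK293 cells stably expressing EP4 fused to ProLink and β-arrestin 2 fused to EA. Recruitment read as β-gal luminescence after 1 h reagent at room temperature, as percent of DMSO control.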
PTRGER4 (EP4), sequence (P35408 whole entry, looked up, the tested form may be a part): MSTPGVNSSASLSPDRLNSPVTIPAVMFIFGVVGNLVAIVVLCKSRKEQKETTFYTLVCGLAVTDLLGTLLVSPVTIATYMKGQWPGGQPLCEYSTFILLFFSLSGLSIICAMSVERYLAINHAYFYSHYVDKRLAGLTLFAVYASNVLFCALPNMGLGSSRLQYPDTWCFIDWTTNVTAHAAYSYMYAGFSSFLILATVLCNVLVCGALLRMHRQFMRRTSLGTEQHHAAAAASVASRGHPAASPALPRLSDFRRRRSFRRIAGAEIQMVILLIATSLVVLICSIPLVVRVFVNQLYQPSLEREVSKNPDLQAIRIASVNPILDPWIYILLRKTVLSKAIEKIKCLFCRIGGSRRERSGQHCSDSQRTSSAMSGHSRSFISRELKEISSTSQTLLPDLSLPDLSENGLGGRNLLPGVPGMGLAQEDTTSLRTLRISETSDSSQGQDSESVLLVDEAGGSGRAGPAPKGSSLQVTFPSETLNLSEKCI

PTGER2 (EP2), sequence (P43116 whole entry): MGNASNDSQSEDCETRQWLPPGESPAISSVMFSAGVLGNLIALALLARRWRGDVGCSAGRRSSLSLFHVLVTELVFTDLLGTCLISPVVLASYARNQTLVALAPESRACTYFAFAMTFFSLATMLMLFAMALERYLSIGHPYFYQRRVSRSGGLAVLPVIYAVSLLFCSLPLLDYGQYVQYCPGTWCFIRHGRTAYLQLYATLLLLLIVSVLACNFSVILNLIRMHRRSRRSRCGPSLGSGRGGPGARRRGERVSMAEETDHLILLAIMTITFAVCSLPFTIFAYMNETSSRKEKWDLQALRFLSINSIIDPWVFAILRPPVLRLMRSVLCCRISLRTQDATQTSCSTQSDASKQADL

Turning to `COc1ccc(F)c2c1cc(C#N)n2CCNc1cc(-c2cc3cc(C(=O)O)ccc3[nH]2)ncn1` [Example 960, 2-{6-[2-(2-Cyano-7-fluoro-4-methoxy-indol-1-yl)-ethylamino]-pyrimidin-4-yl}-1H-indole-5-carboxylic acid], the IC50 was determined as 9 nM in assay [1] and 4 nM in assay [2].

With `COc1ccc(F)c2c1cc(C#N)n2CCNc1cc(-c2cc3ccccc3[nH]2)ncn1` [Example 961, 7-Fluoro-1-{2-[6-(1H-indol-2-yl)-pyrimidin-4-ylamino]-ethyl}-4-methoxy-1H-indole-2-carbonitrile], the IC50 in assay [1] is 12 nM; in assay [2], 34 nM.

Consider `COC(=O)c1ccc2[nH]c(-c3cc(NCCn4c(C#N)cc5c(OC)ccc(F)c54)ncn3)cc2c1` [Example 962, 2-{6-[2-(2-Cyano-7-fluoro-4-methoxy-indol-1-yl)-ethylamino]-pyrimidin-4-yl}-1H-indole-5-carboxylic acid methyl ester], for which the IC50 is 3 nM in assay [1] and 11 nM in assay [2].

For `COCCOc1ccc(-c2cc(NCCn3c(C#N)cc4c(OC)ccc(F)c43)ncn2)cc1` [Example 963, 7-Fluoro-4-methoxy-1-(2-{6-[4-(2-methoxy-ethoxy)-phenyl]-pyrimidin-4-ylamino}-ethyl)-1H-indole-2-carbonitrile], the IC50 stood at 194 nM in assay [1] and 126 nM in assay [2].

Regarding `COc1ccc(F)c2c1cc(C#N)n2CCNc1cc(-c2ccc(OCCO)cc2)ncn1` [Example 964, 7-Fluoro-1-(2-{6-[4-(2-hydroxy-ethoxy)-phenyl]-pyrimidin-4-ylamino}-ethyl)-4-methoxy-1H-indole-2-carbonitrile], the values for the 50% inhibitory concentration (IC50) in assay [1] and in assay [2] were 41 nM and 22 nM, respectively.

`COc1ccc(F)c2c1cc(C#N)n2CCNc1cc(-c2ccc3cc[nH]c3c2)ncn1` [Example 966, 7-Fluoro-1-{2-[6-(1H-indol-6-yl)-pyrimidin-4-ylamino]-ethyl)-4-methoxy-1H-indole-2-carbonitrile]: the IC50 was determined as 14 nM in assay [1] and 31 nM in assay [2].

Take `COc1ccc(F)c2c1cc(C#N)n2CCNc1cc(-c2c[nH]c3cnccc23)ncn1` [Example 967, 7-Fluoro-4-methoxy-1-{2-[6-(1H-pyrrolo[2,3-c]pyridin-3-yl)-pyrimidin-4-ylamino]-ethyl}-1H-indole-2-carbonitrile]: the IC50 in assay [1] stood at 6 nM; in assay [2], 17 nM.

Regarding `COc1ccc(F)c2c1cc(C#N)n2CCNc1cc(-c2c[nH]c3ccccc23)ncn1` [Example 968, 7-Fluoro-1-{2-[6-(1H-indol-3-yl)-pyrimidin-4-ylamino]-ethyl)-4-methoxy-1H-indole-2-carbonitrile], the IC50 in assay [1] is 4 nM; in assay [2], 15 nM.

Consider `COc1ccc(F)c2c1cc(C#N)n2CCNc1cc(-c2cccc3[nH]ccc23)ncn1` [Example 969, 7-Fluoro-1-{2-[6-(1H-indol-4-yl)-pyrimidin-4-ylamino]-ethyl)-4-methoxy-1H-indole-2-carbonitrile], for which the IC50 in assay [1] was determined as 56 nM; in assay [2] it was 25 nM.

As to `COc1ccc(F)c2c1cc(C#N)n2CCNc1cc(-c2ccc3c(c2)CNC(=O)N3)ncn1` [Example 970, 7-Fluoro-4-methoxy-1-{2-[6-(2-oxo-1,2,3,4-tetrahydro-quinazolin-6-yl)-pyrimidin-4-ylamino]-ethyl)-1H-indole-2-carbonitrile], the results for the IC50 in assay [1] and in assay [2] were 31 nM and 27 nM, respectively.

Regarding `COc1ccc(F)c2c1cc(C#N)n2CCNc1cc(-c2ccc(NC=O)cc2)ncn1` [Example 971, N-(4-{6-[2-(2-Cyano-7-fluoro-4-methoxy-indol-1-yl)-ethylamino]-pyrimidin-4-yl}-phenyl)-formamide], the IC50 was determined as 39 nM in assay [1] and 24 nM in assay [2].

Regarding `COc1ccc(F)c2c1cc(C#N)n2CCNc1cc(-c2ccc3[nH]c(=O)oc3c2)ncn1` [Example 972, 7-Fluoro-4-methoxy-1-{2-[6-(2-oxo-2,3-dihydro-benzooxazol-6-yl)-pyrimidin-4-ylamino]-ethyl}-1H-indole-2-carbonitrile], the IC50 came to 6 nM in assay [1] and 18 nM in assay [2].

Consider `COc1ccc(F)c2c1cc(C#N)n2CCNc1cc(-c2ccc3oc(=O)n(C)c3c2)ncn1` [Example 973, 7-Fluoro-4-methoxy-1-{2-[6-(3-methyl-2-oxo-2,3-dihydro-benzooxazol-5-yl)-pyrimidin-4-ylamino]-ethyl}-1H-indole-2-carbonitrile], for which the IC50 in assay [1] worked out at 15 nM; in assay [2] it was 49 nM.

In the case of `COc1ccc(F)c2c1cc(C#N)n2CCNc1cc(-c2ccc(C(=O)O)cc2)ncn1` [Example 974, 4-{6-[2-(2-Cyano-7-fluoro-4-methoxy-indol-1-yl)-ethylamino]-pyrimidin-4-yl}-benzoic acid], the IC50 in assay [1] turned out to be 36 nM; in assay [2] it was 84 nM.

Turning to `COc1ccc(F)c2c1cc(C#N)n2CCNc1cc(-c2ccnc(N3CCC3)c2)ncn1` [Example 975, 1-{2-[6-(2-Azetidin-1-yl-pyridin-4-yl)-pyrimidin-4-ylamino]-ethyl}-7-fluoro-4-methoxy-1H-indole-2-carbonitrile], the IC50 in assay [1] came out at 44 nM; in assay [2], 55 nM.

Consider `COc1ccc(F)c2c1cc(C#N)n2CCNc1cc(-c2ccnc(N3CCCCC3)c2)ncn1` [Example 976, 7-Fluoro-4-methoxy-1-{2-[6-(3,4,5,6-tetrahydro-2H-[1,2′]bipyridinyl-4′-yl)-pyrimidin-4-ylamino]-ethyl}-1H-indole-2-carbonitrile], for which the IC50 is 194 nM in assay [1] and 317 nM in assay [2].

For the compound `COc1ccc(F)c2c1cc(C#N)n2CCNc1cc(-c2ccc3[nH]ncc3c2)ncn1` [Example 977, 7-Fluoro-1-{2-[6-(1H-indazol-5-yl)-pyrimidin-4-ylamino]-ethyl}-4-methoxy-1H-indole-2-carbonitrile], the values for the IC50 in assay [1] and in assay [2] were 5 nM and 6 nM, respectively.

Regarding `COc1ccc(F)c2c1cc(C#N)n2CCNc1cc(-c2c[nH]c3ncccc23)ncn1` [Example 978, 7-Fluoro-4-methoxy-1-{2-[6-(1H-pyrrolo[2,3-b]pyridin-3-yl)-pyrimidin-4-ylamino]-ethyl}-1H-indole-2-carbonitrile], the IC50 in assay [1] was 1 nM; in assay [2], 16 nM.

As to `COc1ccc(F)c2c1cc(C#N)n2CCNc1cc(-c2cnc3[nH]ccc3c2)ncn1` [Example 979, 7-Fluoro-4-methoxy-1-{2-[6-(1H-pyrrolo[2,3-b]pyridin-5-yl)-pyrimidin-4-ylamino]-ethyl}-1H-indole-2-carbonitrile], the IC50 in assay [1] amounted to 4 nM; in assay [2], 15 nM.

Regarding `COc1ccc(F)c2c1cc(C#N)n2CCNc1cc(-c2cnc3c(ccn3C)c2)ncn1` [Example 980, 7-Fluoro-4-methoxy-1-{2-[6-(1-methyl-1H-pyrrolo[2,3-b]pyridin-5-yl)-pyrimidin-4-ylamino]-ethyl}-1H-indole-2-carbonitrile], the figures for the IC50 in assay [1] and in assay [2] were 21 nM and 12 nM, respectively.

Regarding `COc1cc2[nH]ncc2cc1-c1cc(NCCn2c(C#N)cc3c(OC)ccc(F)c32)ncn1` [Example 981, 7-Fluoro-4-methoxy-1-{2-[6-(6-methoxy-1H-indazol-5-yl)-pyrimidin-4-ylamino]-ethyl}-1H-indole-2-carbonitrile], the IC50 in assay [1] was determined as 59 nM; in assay [2], 58 nM.

For `CCNC(=O)Nc1ccc(-c2cc(NCCn3c(C#N)cc4c(OC)ccc(F)c43)ncn2)cc1OC` [Example 982, 1-(4-{6-[2-(2-Cyano-7-fluoro-4-methoxy-indol-1-yl)-ethylamino]-pyrimidin-4-yl}-2-methoxy-phenyl)-3-ethyl-urea], the results for the IC50 in assay [1] and in assay [2] were 18 nM and 3 nM, respectively.

For the compound `COc1ccc(F)c2c1cc(C#N)n2CCNc1cc(-c2ccc(CNS(C)(=O)=O)cc2)ncn1` [Example 983, N-(4-{6-[2-(2-Cyano-7-fluoro-4-methoxy-indol-1-yl)-ethylamino]-pyrimidin-4-yl}-benzyl)-methanesulfonamide], the figures for the IC50 in assay [1] and in assay [2] were 248 nM and 244 nM, respectively.

Take `COc1ccc(F)c2c1cc(C#N)n2CCNc1cc(-c2ccc3[nH]cnc3c2)ncn1` [Example 984, 1-{2-[6-(1H-Benzoimidazol-5-yl)-pyrimidin-4-ylamino]-ethyl}-7-fluoro-4-methoxy-1H-indole-2-carbonitrile]: the results for the IC50 in assay [1] and in assay [2] were 8 nM and 28 nM, respectively.

For the compound `COc1ccc(F)c2c1cc(C#N)n2CCNc1cc(-c2ccc3nn[nH]c3c2)ncn1` [Example 985, 1-{2-[6-(3H-Benzotriazol-5-yl)-pyrimidin-4-ylamino]-ethyl}-7-fluoro-4-methoxy-1H-indole-2-carbonitrile], the values for the IC50 in assay [1] and in assay [2] were 25 nM and 14 nM, respectively.

Turning to `COc1ccc(F)c2c1cc(C#N)n2CCNc1cc(-c2ccnc(C3CC3)c2)ncn1` [Example 986, 1-{2-[6-(2-Cyclopropyl-pyridin-4-yl)-pyrimidin-4-ylamino]-ethyl}-7-fluoro-4-methoxy-1H-indole-2-carbonitrile], the figures for the IC50 in assay [1] and in assay [2] were 9 nM and 66 nM, respectively.

In the case of `COc1ccc(F)c2c1cc(C#N)n2CCNc1cc(-c2ccc3[nH]c(=O)[nH]c3c2)ncn1` [Example 987, 7-Fluoro-1-{2-[6-(2-oxo-2,3-dihydro-1H-benzo[d]imidazol-5-yl)-pyrimidin-4-ylamino]-ethyl}-4-methoxy-1H-indole-2-carbonitrile], the IC50 in assay [1] was determined as 44 nM; in assay [2], 67 nM.

Take `COc1ccc(F)c2c1cc(C#N)n2CCNc1cc(-c2ccnc(N)c2)ncn1` [Example 988, 1-{2-[6-(2-Amino-pyridin-4-yl)-pyrimidin-4-ylamino]-ethyl}-7-fluoro-4-methoxy-1H-indole-2-carbonitrile]: the IC50 in assay [1] was 51 nM; in assay [2] it was 197 nM.
